Measured values reported in article PMC7478165, “Derivatisation of parthenolide to address chemoresistant chronic lymphocytic leukaemia” (MedChemComm, 2019).
pEC50: −log10 of the molar value.

Tests used:
MEC1 CLL cell line [1] = test: cells; parameters: alamarBlue (resazurin reduction) viability assay in MEC1 CLL cells; settings: Homo sapiens, MEC1, 24 h; read-out: alamarBlue EC50 (uM) average
Text: Defective p53-signalling increases genomic instability and drives tumour progression. A high frequency of p53 inactivation is found in relapsed, treatment-resistant, high risk CLL.[30] […] Owing to resource availability a subset of up to ten of these compounds was prioritised for further investigation. Compounds 2d, 2e, 2j, 2aa, 5a, 5d, 5e, 5f, 5ab and 6b were selected on the basis of reasons including ease of synthetic access, diversity across the chemical space probed and novelty. Those prepared under conditions (i)Scheme 1 (2d, 5a and 6b) were available on a scale and in a purity to directly permit follow-up studies, whereas compounds prepared under conditions (ii)Scheme 1 were prepared on a small scale so were resynthesised. These seven compounds (2e, 2j, 2aa, 5d, 5e, 5f and 5ab) were isolated on >30 mg scale in high purity and progressed to more following studies. Biological efforts at Sygnature Discovery (where differing to University of Birmingham) MEC1 cells were obtained from the American Type Culture Collection (Manassas, VA 20110 USA) and were routinely cultured in RPMI 1640 medium (Sigma-Aldrich) supplemented with 1% L-glutamine (Sigma-Aldrich), 1% Penicillin/Streptomycin (Sigma-Aldrich) and 10% FBS (Gibco). The MEC1 proliferation assay was conducted by performing a re-feed of the MEC1 cells 24 h prior to cell seeding. On the day of the assay, cells were seeded into a 384-well assay plate at a density of 12,500 cells/well in 25 μL of complete MEC1 medium. Compound treatment was performed on the day of cell seeding, with compounds prepared as duplicate compound response curves (final DMSO concentration of 0.6%). Post compound treatment, MEC1 assay plates were returned to a 37 °C/5% CO2 incubator for 24 h of incubation. Following compound treatment, cellular viability was determined by measuring reduction of alamarBlue® reagent (Invitrogen). alamarBlue® reagent (2.5 μL) was added to each assay well to give a 1:10 dilution of the neat stock and assay plates were incubated for 3 h at 37 °C/5% CO2. Reduction of alamarBlue® was determined using an Envision Xcite plate reader (Perkin Elmer) with an excitation wavelength of 560 nm set and an emission wavelength of 590 nm set. Cell viability was determined by normalising raw fluorescent data to a cell only high control and Parthenolide treated low control to provide percentage viability readout. Data was plotted and EC50 values extracted and reported EC50s represent an average of at least two independent assays.

MEC1 CLL cell line [2] = test: alamarBlue assay, in vitro antileukaemic activity against MEC1 CLL cell line; format: cell-based
Text: Defective p53-signalling increases genomic instability and drives tumour progression. A high frequency of p53 inactivation is found in relapsed, treatment-resistant, high risk CLL.[30] […] Owing to resource availability a subset of up to ten of these compounds was prioritised for further investigation. Compounds 2d, 2e, 2j, 2aa, 5a, 5d, 5e, 5f, 5ab and 6b were selected on the basis of reasons including ease of synthetic access, diversity across the chemical space probed and novelty. Those prepared under conditions (i)Scheme 1 (2d, 5a and 6b) were available on a scale and in a purity to directly permit follow-up studies, whereas compounds prepared under conditions (ii)Scheme 1 were prepared on a small scale so were resynthesised. These seven compounds (2e, 2j, 2aa, 5d, 5e, 5f and 5ab) were isolated on >30 mg scale in high purity and progressed to more following studies.
Following the identification of 5f as the most promising drug-like derivative of PTL from the aforementioned parallel/high-throughput screening, the anti-leukaemic activity of 5f was tested once more and compared directly with that of PTL (1) and DMAPT (2a), which serve as comparators and positive controls.
Amine 7 was successfully prepared as follows: 4-Piperidinecarboxylic acid was N-Boc protected to deliver 8 in 92% yield.[43] In order to confidently assign the NMR spectra of compound 8 J-MOD, HSQC and ^1H–^1H COSY were helpful, particularly in establishing that a broad resonance in the proton-decoupled ^13C NMR spectrum, centred on 42.8 ppm, corresponds to the ring-carbons bonded to nitrogen. The carboxylic acid of 8 was converted to the corresponding ethyl-3-keto-propanoate 9 in 24% yield. Conversion of 9 to the N-Boc protected congener 10, was achieved by treatment with acetamidine hydrochloride and potassium carbonate, furnishing 10 in 77% yield. Treatment with trifluoroacetic acid delivered desired compound 7 in 99% yield for the Boc-deprotection step (scale 200 mg, 17% over four linear steps). Thus, evidencing accessibility of amine 7 and with it in hand, it was timely to probe any activity arising from the amine alone. MEC1 sensitivity to 1, 5f and 7 was compared in parallel using the alamarBlue® assay (Fig. 6). […] A pre-peer-reviewed preprint of this article was deposited and may be viewed elsewhere.[44]

Row | Structure (SMILES) | EC50 (MEC1 CLL cell line [1]) [µM] | further results
1 | CC1=CCCC2(C)OC2C2OC(=O)C(CN3CCN(C(C)(C)C)CC3)C2CC1 (stereo not shown) [5s] | > 30 | 
2 | CC1=CCCC2(C)OC2C2OC(=O)C(CN3CCN(CCc4cccs4)CC3)C2CC1 (stereo not shown) [5t] | > 30 | 
3 | CC1=CCCC2(C)OC2C2OC(=O)C(CNCc3ccccc3OC(F)(F)F)C2CC1 (stereo not shown) [4x] | > 30 | 
4 | CC1=CCCC2(C)OC2C2OC(=O)C(CN3CCC4(CC3)OCCO4)C2CC1 (stereo not shown) [5g] | 15.2 | 
5 | COc1ccc(-c2noc(CNCC3C(=O)OC4C3CCC(C)=CCCC3(C)OC43)n2)cc1OC (stereo not shown) [4k] | > 30 | 
6 | CC1=CCCC2(C)OC2C2OC(=O)C(CN3CCN(C)CC3)C2CC1 (stereo not shown) [5c] | > 30 | 
7 | CC1=CCCC2(C)OC2C2OC(=O)C(CN3CCN(CC4CCCCC4)CC3)C2CC1 (stereo not shown) [5u] | > 30 | 
8 | CC1=CCCC2(C)OC2C2OC(=O)C(CN(C)Cc3cccc(C(F)(F)F)c3)C2CC1 (stereo not shown) [2p] | > 30 | 
9 | CC1=CCCC2(C)OC2C2OC(=O)C(CNCc3c(F)cc(F)cc3F)C2CC1 (stereo not shown) [4l] | > 30 | 
10 | CC1=CCCC2(C)OC2C2OC(=O)C(CN3CCC(N4CCCCC4)CC3)C2CC1 (stereo not shown) [5r] | > 30 | 
11 | CC1=CCCC2(C)OC2C2OC(=O)C(CN(Cc3sccc3C)C3CC3)C2CC1 (stereo not shown) [2r] | > 30 | 
12 | CC1=CCCC2(C)OC2C2OC(=O)C(CN3CCCCC3)C2CC1 (stereo not shown) [5b] | 7.8 | 
13 | CC1=CCCC2(C)OC2C2OC(=O)C(CNCC3CCOCC3)C2CC1 (stereo not shown) [4f] | 23.3 | 
14 | CC1=CCCC2(C)OC2C2OC(=O)C(CNCc3ccccc3)C2CC1 (stereo not shown) [4c] | 20.4 | 
15 | CC1=CCCC2(C)OC2C2OC(=O)C(CN3CCN(Cc4cccc(C)c4)C(=O)C3)C2CC1 (stereo not shown) [5o] | > 30 | 
16 | COCCN1CCN(CC2C(=O)OC3C2CCC(C)=CCCC2(C)OC32)CC1 (stereo not shown) [5j] | 19.5 | 
17 | CC1=CCCC2(C)OC2C2OC(=O)C(CNCc3ccc(OC(F)(F)F)cc3)C2CC1 (stereo not shown) [4w] | > 30 | 
18 | CC1=CCCC2(C)OC2C2OC(=O)C(CSCCO)C2CC1 (stereo not shown) [Compound 3] |  | activity against the MEC1 CLL cell line (MEC1 CLL cell line [2]; result in words): lack of activity
19 | CC1=CCCC2(C)OC2C2OC(=O)C(CNCc3ccc(N(C)C)cc3)C2CC1 (stereo not shown) [4n] | > 30 | 
20 | CC1=CCCC2(C)OC2C2OC(=O)C(CN(C)C(C)C)C2CC1 (stereo not shown) [2b] | > 30 | 

Row | Structure (SMILES) | EC50 (MEC1 CLL cell line [1]) [µM] | further results
21 | CC1=CCCC2(C)OC2C2OC(=O)C(CNCc3ccc(F)cc3C(F)(F)F)C2CC1 (stereo not shown) [4aa] | > 30 | 
22 | CC1=CCCC2(C)OC2C2OC(=O)C(CN3CCn4c(nnc4C(F)(F)F)C3)C2CC1 (stereo not shown) [5v] | > 30 | 
23 | CC1=CCCC2(C)OC2C2OC(=O)C(CNCc3c(F)cccc3F)C2CC1 (stereo not shown) [4z] | > 30 | 
24 | CC1=CCCC2(C)OC2C2OC(=O)C(CN(C)CCO)C2CC1 (stereo not shown) [Compound 2c] |  | pEC50 (MEC1 CLL cell line [2]; Homo sapiens, MEC1, read-out: EC50 ave., MEC1 cell line, alamarBlue assay, library screen): > 4.82
25 | CCCC1CCN(CC2C(=O)OC3C2CCC(C)=CCCC2(C)OC32)CC1 (stereo not shown) [5i] | 22.2 | 
26 | CC1=CCCC2(C)OC2C2OC(=O)C(CN(C)Cc3nnc(-c4ccccc4)o3)C2CC1 (stereo not shown) [2n] | > 30 | 
27 | CC1=CCCC2(C)OC2C2OC(=O)C(CNCc3c(F)cccc3Cl)C2CC1 (stereo not shown) [4ad] | > 30 | 
28 | CC1=CCCC2(C)OC2C2OC(=O)C(CNCc3ccccc3N(C)C)C2CC1 (stereo not shown) [4q] | > 30 | 
29 | CCCc1nc(CN(CC)CC2C(=O)OC3C2CCC(C)=CCCC2(C)OC32)no1 (stereo not shown) [2s] | > 30 | 
30 | CC1=CCCC2(C)OC2C2OC(=O)C(CN3CCN(c4ncccn4)CC3)C2CC1 (stereo not shown) [5m] | 24.8 | 
31 | CC1=CCCC2(C)OC2C2OC(=O)C(CNCc3ccco3)C2CC1 (stereo not shown) [4m] | > 30 | 
32 | CC1=CCCC2(C)OC2C2OC(=O)C(CNCc3c(Cl)cccc3Cl)C2CC1 (stereo not shown) [4t] | > 30 | 
33 | C#CCNCC1C(=O)OC2C1CCC(C)=CCCC1(C)OC21 (stereo not shown) [4d] | > 30 | 
34 | CCN(Cc1cc(Cl)ccc1OC)CC1C(=O)OC2C1CCC(C)=CCCC1(C)OC21 (stereo not shown) [2l] | 19.8 | 
35 | COCCNCC1C(=O)OC2C1CCC(C)=CCCC1(C)OC21 (stereo not shown) [4b] | > 30 | 
36 | CC1=CCCC2(C)OC2C2OC(=O)C(CNCc3ccccc3C(F)(F)F)C2CC1 (stereo not shown) [4u] | > 30 | 
37 | CC1=CCCC2(C)OC2C2OC(=O)C(CNCc3ccc(C(F)(F)F)cc3)C2CC1 (stereo not shown) [4v] | > 30 | 
38 | CC1=CCCC2(C)OC2C2OC(=O)C(CN3CCC(C#N)(c4ccccc4)CC3)C2CC1 (stereo not shown) [5p] | > 30 | 
39 | CC1=CCCC2(C)OC2C2OC(=O)C(CN(C)CCO)C2CC1 (stereo not shown) [2c] | 5.2 | 
40 | CC1=CCCC2(C)OC2C2OC(=O)C(CSCCO)C2CC1 (stereo not shown) [compound 3] | > 30 | 

Row | Structure (SMILES) | EC50 (MEC1 CLL cell line [1]) [µM] | further results
41 | CC1=CCCC2(C)OC2C2OC(=O)C(CNCC(C)(C)N3CCOCC3)C2CC1 (stereo not shown) [4r] | > 30 | 
42 | CCCCN1CCN(CC2C(=O)OC3C2CCC(C)=CCCC2(C)OC32)CC1 (stereo not shown) [5x] | > 30 | 
43 | CC1=CCCC2(C)OC2C2OC(=O)C(CNCc3cccc(OC(F)(F)F)c3)C2CC1 (stereo not shown) [4y] | > 30 | 
44 | CC1=CCCC2(C)OC2C2OC(=O)C(CN(C)Cc3n[nH]c4c3CCCCC4)C2CC1 (stereo not shown) [2k] | 19.3 | 
45 | CC1=CCCC2(C)OC2C2OC(=O)C(CNCCO)C2CC1 (stereo not shown) [4a] | 19 | 
46 | CC1=CCCC2(C)OC2C2OC(=O)C(CNCc3ccc(Cl)cc3Cl)C2CC1 (stereo not shown) [4ac] | > 30 | 
47 | CC1=CCCC2(C)OC2C2OC(=O)C(CNCc3ccc(Cl)cc3F)C2CC1 (stereo not shown) [4i] | > 30 | 
48 | CC1=CCCC2(C)OC2C2OC(=O)C(CNCc3c(F)cccc3C(F)(F)F)C2CC1 (stereo not shown) [4ab] | > 30 | 
49 | CC1=CCCC2(C)OC2C2OC(=O)C(CN(Cc3ccco3)Cc3cccs3)C2CC1 (stereo not shown) [2t] | > 30 | 
50 | CC1=CCCC2(C)OC2C2OC(=O)C(CN3CCC(N4CCc5ccccc5C4)CC3)C2CC1 (stereo not shown) [5k] | 16.3 | 
51 | CC1=CCCC2(C)OC2C2OC(=O)C(CN(C)Cc3nc4cc(C)c(C)cc4[nH]3)C2CC1 (stereo not shown) [2y] | > 30 | 
52 | CC1=CCCC2(C)OC2C2OC(=O)C(CNCCc3nccs3)C2CC1 (stereo not shown) [4s] | > 30 | 
53 | CCOc1cccc(CN(CCO)CC2C(=O)OC3C2CCC(C)=CCCC2(C)OC32)c1 (stereo not shown) [2i] | 19.2 | 
54 | CC1=CCCC2(C)OC2C2OC(=O)C(CNCCOc3cccc(C)c3)C2CC1 (stereo not shown) [4h] | 21.9 | 
55 | CC1=CCCC2(C)OC2C2OC(=O)C(CN(C)Cc3ccc(Cl)cc3)C2CC1 (stereo not shown) [2h] | 18.3 | 
56 | CC1=CCCC2(C)OC2C2OC(=O)C(CN(C)Cc3nc(-c4ccccn4)no3)C2CC1 (stereo not shown) [2q] | > 30 | 
57 | CC1=CCCC2(C)OC2C2OC(=O)C(CN(Cc3ccncc3)Cc3ccc4c(c3)OCO4)C2CC1 (stereo not shown) [2u] | > 30 | 
58 | COc1ccccc1CNCC1C(=O)OC2C1CCC(C)=CCCC1(C)OC21 (stereo not shown) [4p] | > 30 | 
